# Measurements taken from patent publication US9517989B2, “2-cycloalkyl resorcinol cannabinergic ligands” (priority 2012, dated 2016).
# Where two headings read alike, the source gives them in different places.
# How the values were obtained:
# CB1 = CB1 (Rattus norvegicus, UniProt P20272); experiment: CB1 receptor binding affinity (Ki)
# Procedure: Some disclosed compounds were tested for CB1 and CB2 receptor binding affinity (Tables 1, 2, 3, 4, 5, 6). As used herein “binding affinity” is represented by the Ki value. The Ki value is the affinity constant and describes the affinity of the compound for the receptor. […] A detailed description of the methods used to test “binding affinity” of compounds is given in Makriyannis, et al., US 2007, 0135388 and in Papahatjis, et al. J. Med. Chem. (2007) 4048, the content of each of which is hereby incorporated by reference.
# CB2 receptor = CB2 receptor (UniProt P47936); experiment: CB2 receptor binding affinity (Ki); conditions: read-out: CB2 receptor Ki
# Procedure: Some disclosed compounds were tested for CB1 and CB2 receptor binding affinity (Tables 1, 2, 3, 4, 5, 6). As used herein “binding affinity” is represented by the Ki value. The Ki value is the affinity constant and describes the affinity of the compound for the receptor. The lower the Ki value, the higher the affinity of the compound for the receptor. A detailed description of the methods used to test “binding affinity” of compounds is given in Makriyannis, et al., US 2007, 0135388 and in Papahatjis, et al. J. Med. Chem. (2007) 4048, the content of each of which is hereby incorporated by reference.
# Sequence of CB1 (P20272 whole entry): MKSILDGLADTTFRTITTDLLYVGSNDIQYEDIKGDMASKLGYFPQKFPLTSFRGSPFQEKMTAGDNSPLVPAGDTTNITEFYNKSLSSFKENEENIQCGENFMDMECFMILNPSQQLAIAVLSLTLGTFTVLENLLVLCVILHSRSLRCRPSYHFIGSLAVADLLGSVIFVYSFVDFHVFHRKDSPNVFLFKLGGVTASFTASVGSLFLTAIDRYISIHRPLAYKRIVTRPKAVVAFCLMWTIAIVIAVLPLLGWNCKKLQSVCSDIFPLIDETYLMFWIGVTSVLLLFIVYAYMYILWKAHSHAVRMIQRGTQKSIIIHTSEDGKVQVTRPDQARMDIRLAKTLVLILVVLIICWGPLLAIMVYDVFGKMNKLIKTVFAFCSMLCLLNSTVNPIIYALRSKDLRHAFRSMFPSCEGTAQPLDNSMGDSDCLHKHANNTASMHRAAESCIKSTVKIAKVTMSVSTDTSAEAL
Compound,Ki (CB1; read-out: CB1 receptor Ki) [nM],Ki (CB2 receptor) [nM],Ki (CB1) [nM]
"2-[(1S,6S)-3-(Hydroxymethyl)-6-(1-methylethenyl)-2-cyclohexen-1-yl]-5-[1-(1,2-cis-hexen-1-yl)-cyclopent-1-yl]resorcinol [Compound 4.5]",29,2.7,–
"C=C(C)[C@H]1CCC(C)=C[C@@H]1c1c(O)cc(CCCCC)cc1O [(+)-CBD, Cannabidiol, reference compound]",–,> 200,–
"C=C(C)[C@@H]1CCC(C)=C[C@H]1c1c(O)cc(CCCCC)cc1O [(−)-CBD, Cannabidiol, reference compound]",–,> 200,–
"C=C(C)[C@H]1CCC(COC(C)=O)=C[C@@H]1c1c(O)cc(C(C)(C)CCCCCC)cc1O [Compound 3.2, 2-[(1S,6S)-3-(Acetoxymethyl)-6-(1-methylethenyl)-2-cyclohexen-1-yl]-5-(1,1-dimethylheptyl)resorcinol]",–,62,69
"C=C(C)[C@H]1CCC(COC(C)=O)=C[C@@H]1c1c(O)cc(C2(CCCCCC)CC2)cc1O [Compound 3.3, 2-[(1S,6S)-3-(Acetoxymethyl)-6-(1-methylethenyl)-2-cyclohexen-1-yl]-5-(1-hexyl-cyclopropyl)resorcinol]",–,105,88
"C=C(C)[C@H]1CCC(COC(C)=O)=C[C@@H]1c1c(O)cc(C2(CCCCCC)CCCC2)cc1O [Compound 3.4, 2-[(1S,6S)-3-(Acetoxymethyl)-6-(1-methylethenyl)-2-cyclohexen-1-yl]-5-(1-hexyl-1-cyclopentyl)resorcinol]",–,65,277
"C=C(C)[C@H]1CCC(COC(C)=O)=C[C@@H]1c1c(O)cc(C2(/C=C\CCCC)CCCC2)cc1O [Compound 3.5, 2-[(1S,6S)-3-(Acetoxymethyl)-6-(1-methylethenyl)-2-cyclohexen-1-yl]-5-[1-(1,2-cis-hexen-1-yl)-cyclopent-1-yl]resorcinol]",–,12,71
"C=C(C)[C@H]1CCC(COC(C)=O)=C[C@@H]1c1c(O)cc(C2(CCCCCC)SCCS2)cc1O [Compound 3.6, 2-[(1S,6S)-3-(Acetoxymethyl)-6-(1-methylethenyl)-2-cyclohexen-1-yl]-5-(2-hexyl-1,3-dithiolane-2-yl)resorcinol]",326,97,–
"C=C(C)[C@H]1CCC(COC(C)=O)=C[C@@H]1c1c(O)cc(C2(CCCCCBr)CCCC2)cc1O [Compound 3.7, 2-[(1S,6S)-3-(Acetoxymethyl)-6-(1-methylethenyl)-2-cyclohexen-1-yl]-5-[(5-bromopentyl)cyclopentyl)resorcinol]",–,25,51
"C=C(C)[C@H]1CCC(COC(C)=O)=C[C@@H]1c1c(O)cc(C2(CCCCCBr)CCC2)cc1O [Compound 3.8, 2-[(1S,6S)-3-(Acetoxymethyl)-6-(1-methylethenyl)-2-cyclohexen-1-yl]-5-[(5-bromopentyl)cyclobutyl)resorcinol]",–,35,50
"C=C(C)[C@H]1CCC(COC(C)=O)=C[C@@H]1c1c(O)cc(C23CC4CC(CC(C4)C2)C3)cc1O [Compound 3.9, 2-[(1S,6S)-3-(Acetoxymethyl)-6-(1-methylethenyl)-2-cyclohexen-1-yl]-5-(1-adamantyl)resorcinol]",–,135,185
"C=C(C)[C@H]1CCC(COC(C)=O)=C[C@@H]1c1c(O)cc(C(C)(C)CCCBr)cc1O [Compound 3.10, 2-[(1S,6S)-3-(Acetoxymethyl)-6-(1-methylethenyl)-2-cyclohexen-1-yl]-5-(5-bromo-2-methypentan-2-yl)resorcinol]",–,14,620
"C=C(C)[C@H]1CCC(COC(C)=O)=C[C@@H]1c1c(O)cc(C(C)(C)CCCCBr)cc1O [Compound 3.11, 2-[(1S,6S)-3-(Acetoxymethyl)-6-(1-methylethenyl)-2-cyclohexen-1-yl]-5-(6-bromo-2-methylhexan-2-yl)resorcinol]",–,37,191
"C=C(C)[C@H]1CCC(COC(C)=O)=C[C@@H]1c1c(O)cc(C(C)(C)CCCCCBr)cc1O [Compound 3.12, 2-[(1S,6S)-3-(Acetoxymethyl)-6-(1-methylethenyl)-2-cyclohexen-1-yl]-5-(7-bromo-2-methylheptan-2-yl)resorcinol]",–,27,29
"C=C(C)[C@H]1CCC(COC(C)=O)=C[C@@H]1c1c(O)cc(C2(/C=C\CCCC)CCOCC2)cc1O [Compound 3.14, 2-[(1S,6S)-3-(Acetoxymethyl)-6-(1-methylethenyl)-2-cyclohexen-1-yl]-5-[1-(1,2-cis-hexen-1-yl)-tetrahydro-2H-pyran-4-yl]resorcinol]",–,38,376
"C=C(C)[C@H]1CCC(CO)=C[C@@H]1c1c(O)cc(C2(CCCCCBr)CCCC2)cc1O [Compound 4.7, 2-[(1S,6S)-3-(Hydroxymethyl)-6-(1-methylethenyl)-2-cyclohexen-1-yl]-5-[(5-bromopentyl)cyclopentyl)resorcinol]",–,5,16
"C=C(C)[C@H]1CCC(CO)=C[C@@H]1c1c(O)cc(C2(CCCCCBr)CCC2)cc1O [Compound 4.8, 2-[(1S,6S)-3-(Hydroxymethyl)-6-(1-methylethenyl)-2-cyclohexen-1-yl]-5-[(5-bromopentyl)cyclobutyl)resorcinol]",–,11,14
"C=C(C)[C@H]1CCC(CO)=C[C@@H]1c1c(O)cc(C23CC4CC(CC(C4)C2)C3)cc1O [Compound 4.9, 2-[(1S,6S)-3-(Hydroxymethyl)-6-(1-methylethenyl)-2-cyclohexen-1-yl]-5-(1-adamantyl)resorcinol]",–,49,449
"C=C(C)[C@@H]1CCC(COC(C)=O)=C[C@H]1c1c(O)cc(C(C)(C)CCCCCC)cc1O [Compound 31.2, 2-[(1R,6R)-3-(Acetoxymethyl)-6-(1-methylethenyl)-2-cyclohexen-1-yl]-5-(1,1-dimethylheptyl)resorcinol]",–,375,221
"C=C(C)[C@@H]1CCC(COC(C)=O)=C[C@H]1c1c(O)cc(C(C)(C)CCCCCCBr)cc1O [Compound 31.13, 2-[(1R,6R)-3-(Acetoxymethyl)-6-(1-methylethenyl)-2-cyclohexen-1-yl]-5-(8-bromo-2-methyloct-2-yl)resorcinol]",–,171,205
"C=C(C)[C@H]1CCC(COC(C)=O)=C[C@@H]1c1c(O)cc(C2(CCCCCC#N)CCC2)cc1O [Compound 33, 2-[(1S,6S)-3-(Acetoxymethyl)-6-(1-methylethenyl)-2-cyclohexen-1-yl]-5-[(5-cyanopentyl)cyclobutyl)resorcinol]",–,15,65
"C=C(C)[C@H]1CCC(CO)=C[C@@H]1c1c(O)cc(C2(CCCCCN=[N+]=[N-])CCC2)cc1O [Compound 37, 2-[(1S,6S)-3-(Hydroxymethyl)-6-(1-methylethenyl)-2-cyclohexen-1-yl]-5-[(5-azidopentyl)cyclobutyl)resorcinol]",–,7.2,22
"CCCCCc1cc(O)c([C@H]2C=C(C)[C@H]3C[C@@H]2C3(C)C)c(O)c1 [Compound 40.1, (+)-2-[(1R,4S,5S)-2,6,6-trimethylbicyclo[3.1.1]hept-2-en-4-yl]-5-pentyl-resorcinol, reference compound]",–,47,671
"CCCCCCC1(c2cc(O)c([C@H]3C=C(C)[C@H]4C[C@@H]3C4(C)C)c(O)c2)CCCC1 [Compound 40.4, (+)-2-[(1R,4S,5S)-2,6,6-trimethylbicylco[3.1.1]hept-2-en-4-yl]-5-(1-hexyl-1-cyclopentyl)resorcinol]",–,17,23
